Test results from patent US4446136A, “Agents for improvement of peripheral blood flow” (Yamanouchi Pharmaceutical Co., Ltd., priority 1980, dated 1984).

Legend:
[1] = test system: blood flow in microvessels; assay: Effects on microcirculation in vivo in mesenterium of rabbit with lowered blood pressure (Experiment 3); conditions: other substances, anesthetized rabbit, low arterial blood pressure
Sheep = assay: Acute toxicity (LD50 of gelatin) in sheep; format: in vivo; parameters: unit not given here; conditions: intravenous, intraperitoneal, subcutaneous
erythrocytes = assay: Dose-response of gelatin on filtration and hemolysis of erythrocytes (Experiment 4(i)); format: cell-based
Procedure: (i) Following procedures similar to the Experiment 2 using a concentration of gelatin between 0-2.0 mg/ml, effects of the substance on the filtration ratios of erythrocytes through the membrane filter and the ratio of hemolysis were examined at various concentrations of gelatin.

[2] = test system: EB virus transformed lymphoblastoid cells P3HR-1; assay: Toxicity of gelatin to cells in culture; format: cell-based
HeLa S3 = assay: Toxicity of gelatin to cells in culture; format: cell-based
[3] = test system: Lung fibroblasts of human embryo; assay: Toxicity of gelatin to cells in culture; format: cell-based
Rat = assay: Acute toxicity (LD50) in rat; format: in vivo; parameters: unit not given here; conditions: intravenous, intraperitoneal, subcutaneous
[4] = Antigenic activity of gelatin; conditions: by itself
[5] = Acute toxicity, overall (Experiment 5); format: in vivo; conditions: summary of Tables 1, 2 and 3

Procedure for human erythrocytes: A mixture of 1 part of human blood and 1 part (v/v) of preservative solution (sodium citrate buffer containing glucose) was washed 4 to 5 times with physiological saline solution and then 2% (by volume) erythrocyte solution was prepared in physiological saline. In the next step, physiological saline solutions containing 0.05% gelatin, 0.1% α1 -acid glycoprotein, 0.1% polyethylene glycol, 0.1% γ-globulin, 0.1% ovomucoid, 0.1% dextran, 0.1% dextran sulfate, 0.1% chondroitin sulfate, or physiological saline alone were mixed with an equal volume of the erythrocyte suspension, and then each mixture was shaken mildly for 30 min at 37° C. Thereafter 1 ml of each mixture was subjected to filtration through a nitrocellulose membrane filter (13 mm in diameter and 5 μm in average size of micropores, made by Sartorius Co.) at 37° C. under a pressure of 80 mmHg/cm^2. The filtrate was immediately subjected to centrifugation for 2 min at 1,500 r.p.m. and from the supernatant, the ratio of hemolysis during filtration was calculated based on absorbance at 420 nm. As to the erythrocytes remaining on the filter, 5 ml of deionized water was added to the erythrocytes on the membrane filter by placing into a test tube, and the resulting hemolysis due to hypotonicis permitted a measurement of absorbance at 420 nm to calculate the ratio of filtered erythrocytes through the membrane.

Substance	erythrocytes hemolysed during filtration (human erythrocytes; human, erythrocytes)	actions on microcirculation as observed for gelatin [1]	LD50 of gelatin (Sheep)	filtration ratio on further increase in concentration (erythrocytes; above 0.5 mg/ml gelatin)	concentration at which filtration ratio of erythrocytes reached plateau (erythrocytes; gelatin 0-2.0 mg/ml) [mg/mL]	Toxicity (50% growth inhibition) [2] [µg/mL]	Toxicity (50% growth inhibition) (HeLa S3) [µg/mL]	Toxicity (50% growth inhibition) [3] [µg/mL]	ratio of passage (filtration) of erythrocytes through the filter (human erythrocytes; 0.05% gelatin, 0.1% other substances, 5 μm micropores, 37° C., 80 mmHg/cm^2)	ratio of hemolysis during filtration (in words) (human erythrocytes; 0.05% gelatin, 5 μm micropores, 37° C., vs physiological saline control)	LD50 of gelatin (Rat)	antigenic activity [4]	acute toxicity (in words) [5]
dextran sulfate [reference compound]	25-30%	did not exert any actions on microcirculation	–	–	–	–	–	–	–	–	–	–	–
gelatin	–	–	> 1,000	did not improve the filtration ratio	0.5	> 100	> 100	> 100	increased remarkably	reduced	> 1,000	no antigenic activity	very mild
